Columns and labels:
wild-type MDF cells = experiment: FACS cell death assay (PI uptake by flow cytometry) after necroptotic stimulus; assay type: cell-based, mouse; details: for inhibition of TSQ-induced necroptosis (PI uptake, flow cytometry): TSQ 24 h, control comparison at concentrations >1 µM; for inhibition of TSZ-induced necroptosis (PI uptake, flow cytometry): TSZ 24 h
Procedure: In the first protocol, WT MDF cells were seeded at 1.0 × 10^5 cells per well in 24-well plates and allowed to settle for 4 h at 37°C 10% CO2. […] After 24 h, cells were harvested, stained with 1 µg/ml propidium iodide (PI; Sigma–Aldrich) and PI positive cells were quantified by flow cytometry on a BD FACSCalibur instrument. In the second protocol, WT MDF cells were seeded at 5.0 × 10^4 cells in 500 µl per well in 24-well plates (Falcon, cat #353047) and allowed to settle for 24 h at 37°C 10% CO2. […] For all compounds and reagents, 0.5 µl of 1000× stocks were used. Cells were harvested, stained with 2 µg/ml propidium iodide (PI; Sigma–Aldrich) and PI positive cells were quantified by flow cytometry on a BD FACSCalibur instrument.

[1] = biological target: T1, endogenous mouse RIPK3 in MDF cells (Mus musculus, UniProt Q9QZL0); experiment: Cellular Thermal Shift Assay (CETSA); assay type: binding; details: 20 µM
T1 construct: endogenous in cells; host or cells: wild-type mouse dermal fibroblasts (MDF)
Procedure: (§1) CETSA was performed as previously described. Briefly, Mlkl^−/− MDF cells were treated with doxycycline (20 ng/ml) for 4 h to induce expression of the MLKL Q343A mutant and then seeded to obtain 1.5 × 10^6 cells per temperature point. WT MDF or U937 cells were seeded to obtain 1.5 × 10^6 cells per temperature point. Cells were treated with DMSO or compounds (20 µM), as specified, for 1 h at 37°C 10% CO2. Cells were spun down, washed with 5 ml DPBS (Gibco), resuspended in DPBS containing cOmplete EDTA-free Protease Inhibitor Cocktail (Roche) and aliquoted into 100 µl samples per temperature point in PCR tubes. Live cell suspensions were heated across a temperature gradient (below) for 3 min in a T100 Thermal Cycler (Bio-Rad), cooled at room temperature for 3 min, snap frozen in liquid N2 and stored at −80°C overnight.
(§2) Samples were freeze-thawed once to lyse the cells. Soluble protein was separated from precipitated protein via centrifugation at 17 000×g for 30 min at 4°C. Soluble protein fractions were resolved by SDS–PAGE and analysed by Western blot. Briefly, 10 µl of each soluble protein sample was added to 10 µl of NuPAGE LDS Sample Buffer (Invitrogen) containing TCEP (Sigma–Aldrich). Samples were heated at 95°C for 10 min and then 15 µl of each sample was run on a gel along with the Precision Plus Kaleidoscope Prestained Protein Standard (Bio-Rad), using either NuPAGE 4–12% Bis-Tris 1.0 mm × 20-well Midi Gels (Invitrogen) with NuPAGE MES SDS Running Buffer (Invitrogen), or 4–15% Criterion TGX Stain-Free 26 well 15 µl Protein Gels (Bio-Rad) with Tris/Glycine Buffer (Bio-Rad). Western blots were performed according to the Western Blotting General Procedure above.

[2] = test system: RIPK3 phosphorylation in MDF cells; experiment: Cellular phosphorylation assay, Western blot of phospho-RIPK3; assay type: cell-based, mouse; details: 10 µM, 2 h pre-treatment; TSI 2 h; wild-type MDF cells
Procedure: (§3) WT, Ripk1^−/−Mlkl^−/− and Ripk3^−/− MDF cell lines were seeded at 3.0 × 10^5 cells in 1 ml per well in 12-well plates (Corning, cat #3512) and allowed to settle for 24 h at 37°C 10% CO2. WT cells were treated with DMSO alone or compounds (1 µM or 10 µM), as specified, for 2 h. Ripk1^−/−Mlkl^−/− and Ripk3^−/− cells were left untreated. Cells were stimulated with TSI to induce phosphorylation of RIPK1 and RIPK3, or left unstimulated, for 2 h. For all compounds and reagents, 1 µl of 1000× stocks were used. Cells were harvested, washed with 500 µl DPBS (Gibco) and lysed in 25 µl of ice-cold RIPA buffer (25 mM Tris–HCl pH 7.5, 150 mM NaCl, 1% v/v Nonidet P-40, 1% w/v Na Deoxycholate, 0.1% w/v SDS) containing cOmplete EDTA-free Protease Inhibitor Cocktail (Roche), PhosSTOP Phosphatase Inhibitor Cocktail (Roche) and benzonase nuclease (Sigma–Aldrich) for 30 min on ice. Whole cell lysates were stored at −80°C until protein quantification, SDS–PAGE and Western blots were performed. Briefly, whole cell lysates were thawed on ice then quantified using the BCA Protein Assay with bicinchoninic acid solution (Sigma–Aldrich) and copper sulfate solution (Sigma–Aldrich). NuPAGE LDS Sample Buffer (Invitrogen) containing TCEP (Sigma–Aldrich) was added to the whole cell lysates to obtain 20 µg protein in 20 µl total volume per sample. Samples were heated at 95°C for 10 minutes and 20 µl of each sample was run on NuPAGE 4–12% Bis-Tris 1.0 mm × 12-well Mini Gels (Invitrogen) using NuPAGE MES SDS Running Buffer (Invitrogen) along with the Precision Plus Kaleidoscope Prestained Protein Standard (Bio-Rad). Western blots were performed according to the Western Blotting General Procedure above.

[3] = biological target: T2, endogenous mouse RIPK1 in MDF cells (Mus musculus, UniProt Q60855); experiment: Cellular Thermal Shift Assay (CETSA); assay type: binding; details: 20 µM
T2 construct: endogenous in cells; host or cells: wild-type mouse dermal fibroblasts (MDF)
T2 sequence (Q60855 1-656): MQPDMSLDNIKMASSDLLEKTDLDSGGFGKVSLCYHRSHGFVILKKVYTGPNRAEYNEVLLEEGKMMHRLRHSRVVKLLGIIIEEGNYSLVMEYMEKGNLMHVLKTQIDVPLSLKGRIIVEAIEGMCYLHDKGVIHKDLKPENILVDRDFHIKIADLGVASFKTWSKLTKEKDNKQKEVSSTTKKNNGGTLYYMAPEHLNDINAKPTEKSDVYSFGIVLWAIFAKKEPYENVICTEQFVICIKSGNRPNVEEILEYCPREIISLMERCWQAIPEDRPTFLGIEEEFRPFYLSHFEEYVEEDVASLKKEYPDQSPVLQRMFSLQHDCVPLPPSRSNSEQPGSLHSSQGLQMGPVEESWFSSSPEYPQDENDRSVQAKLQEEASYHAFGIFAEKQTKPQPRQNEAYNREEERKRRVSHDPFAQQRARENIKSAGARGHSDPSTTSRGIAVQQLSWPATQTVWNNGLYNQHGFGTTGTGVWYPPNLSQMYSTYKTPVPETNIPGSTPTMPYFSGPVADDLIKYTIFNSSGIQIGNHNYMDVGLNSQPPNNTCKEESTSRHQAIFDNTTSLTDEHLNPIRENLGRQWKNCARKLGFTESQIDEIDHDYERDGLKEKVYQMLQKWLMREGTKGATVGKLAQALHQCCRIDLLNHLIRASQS
Procedure: as §1, §2

[4] = test system: RIPK1 phosphorylation in MDF cells; experiment: Cellular phosphorylation assay, Western blot of phospho-RIPK1; assay type: cell-based, mouse; details: 10 µM, 2 h pre-treatment; TSI 2 h; wild-type MDF cells
Procedure: as §3

T1 sequence (Q9QZL0 whole entry): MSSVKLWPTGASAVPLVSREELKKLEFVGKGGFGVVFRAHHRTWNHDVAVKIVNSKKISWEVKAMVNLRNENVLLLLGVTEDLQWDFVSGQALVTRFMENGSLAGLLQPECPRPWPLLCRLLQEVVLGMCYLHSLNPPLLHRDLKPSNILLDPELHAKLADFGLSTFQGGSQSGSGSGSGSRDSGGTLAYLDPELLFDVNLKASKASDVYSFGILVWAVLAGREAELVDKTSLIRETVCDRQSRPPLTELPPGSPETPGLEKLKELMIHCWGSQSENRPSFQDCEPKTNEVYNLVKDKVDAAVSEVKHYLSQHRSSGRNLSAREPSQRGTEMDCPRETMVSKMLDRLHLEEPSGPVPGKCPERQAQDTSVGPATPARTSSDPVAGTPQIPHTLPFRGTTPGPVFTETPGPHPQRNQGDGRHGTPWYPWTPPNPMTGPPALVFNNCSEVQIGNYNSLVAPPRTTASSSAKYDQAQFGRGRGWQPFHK

## Cc1cc(-c2cnc(N)c3c(-c4ccc5scnc5c4)csc23)n(C)n1 [GSK′843]
wild-type MDF cells
  inhibition of TSQ-induced necroptosis (PI uptake, flow cytometry): protection was comparable
  inhibition of TSZ-induced necroptosis (PI uptake, flow cytometry): more potent protection with the control inhibitors compared with ABT-869

## CC(C)S(=O)(=O)c1ccc2nccc(Nc3ccc4scnc4c3)c2c1 [GSK′872]
wild-type MDF cells
  inhibition of TSQ-induced necroptosis (PI uptake, flow cytometry): protection was comparable
  inhibition of TSZ-induced necroptosis (PI uptake, flow cytometry): more potent protection with the control inhibitors compared with ABT-869
[1]
  effect on thermal stability of endogenous mouse RIPK3 (CETSA): had no effect on RIPK3 stability
[2]
  effect on RIPK3 phosphorylation (phospho-RIPK3 signal, Western blot): almost completely inhibited

## CN1C(=O)NC(Cc2c[nH]c3c(Cl)cccc23)C1=O (centres unmarked) [Nec-1s]
[3]
  effect on thermal stability of endogenous mouse RIPK1 (CETSA): increased the thermal stability
[4]
  effect on RIPK1 phosphorylation (phospho-RIPK1 signal, Western blot): almost completely ablated RIPK1 phosphorylation

Source: publication PMC10212518 (Biochemical Journal, 2023)
